Reference: patent publication US9156824B2, “CDC7 inhibitors” (Eli Lilly and Company, priority 2013, dated 2015)

Tested on: phosphorylated MCM2 at Serine 53 (pMCM2-S53) in H1299 cells
Assay: Acumen imaging assay for detection of phosphorylated MCM2 in H1299 cells
Type: cell-based
Conditions: 4 hours treatment, Hydrate, read-out: IC50, inhibition of pMCM2-S53
Experimental: The Acumen® eX3 is used to determine the effect of compounds on the formation of endogenous phosphorylated MCM2 at Serine 53 (pMCM2-S53). Phosphorylation of MCM2 by CDC7 is determined using specific anti-pMCM2-S53 antibody and quantified with fluorescent tagged secondary antibodies by Acumen® eX3 to monitor CDC7 activity in cells. Phosphorylation of MCM2 at Serine 53 is known to be correlated to CDC7 inhibition.
H1299 cells (ATCC #CRL-5803) are maintained in RPMI-1640 (Hyclone SH30809.01) growth medium supplemented with 10% FBS. Cells are harvested using standard cell culture procedures and then counted using Vi-Cell XR Cell Viability Analyzer (Beckman Counter). 3000-6000 H1299 cells in 100 μL of growth medium are plated into each well of Biocoat Poly-D-Lysine 96-well black/clear plate with flat bottom BioCoat™ Multiwell (Becton Dickinson) cell culture plates 356640 and incubated overnight at 37° C., 5% CO2.
Cells are treated with the test compound (50 μL/well) diluted in medium containing 0.6% DMSO and incubated for 4 hours at 37° C. To each well is added 7.4% formaldehyde (150 μL) diluted with PBS from 37% formaldehyde stock and the plates are incubated at room temperature for 30 minutes. Formaldehyde is removed and cold methanol (100 μL) is added. The plates are incubated for 20 minutes at 4° C. to permeabilize the cells. Plates are washed 3× with 100 μL/well of PBS. […] The plates are sealed with black seal and are read on the Acumen® eX3 (TTP LABTECH) using optical filter 500-530 nanometer and 575-640 nanometer for Alexa Fluor 488 and propidium iodide, respectively. The number of pMCM2-S53 positive cells is normalized to total cells for each well and are calculated as percent inhibition relative to on-plate controls. […]

SMILES: CC1(c2ncncc2F)NC(=O)c2cc(-c3cn[nH]c3)ccc21 (single isomer, unassigned; isomer 2) [Example 4, 3-(5-Fluoropyrimidin-4-yl)-3-methyl-6-(1H-pyrazol-4-yl)isoindolin-1-one, Isomer 2, Hydrate]
- IC50: 290 nM
